Reference: patent publication EP0403957A2, “Optical active 1,4-dihydropyridine derivates” (FUJIREBIO INC., priority 1989, dated 1990)
Like-named read-outs stand apart in the source and are kept apart here.

Assays:
[1] = system: spontaneously hypertensive rats (aparalytic SHR; male); assay: Test for hypotensive activity; assay type: in vivo; conditions: for HR / T 1/2 / Peak: 300 µg/kg into the abdominal aorta of SHR; for MaxΔMBP: 300 µg/kg into the abdominal aorta of SHR through a canula, blood pressure by pressure transducer; for T 1/2: half time of the hypotensive effect; for Peak: time of peak of the hypotensive effect
Experimental: The test was carried out by employing spontaneously hypertensive rats (aparalytic SHR; male) according to Nakao et al method.
300 µg/kg of the compound to be tested was administrated into the abdominal aorta of SHR through a canula (previously inserted). The blood pressures in the whole body of the rats were measured with a pressure transducer (MPU-0.5, made by Nihon Koden K.K.).

[2] = system: thoracic aortas of rabbits; assay: Test for activity of inhibiting KCl-induced contraction; assay type: cell-based, rabbits (Japanese white rabbit; male); conditions: 3x10⁻⁶ M compound; 30 mM KCl; helical strips in Krebs-Henseleit solution at 37°C; determined in 60 minutes
Experimental: Herical strips of thoracic aortas of rabbits (Japanese white rabbit; male) were mounted vertically in organ baths of Krebs-Henselit solution at 37°C for 90 minutes, and then 30 mM of KCl was added to the baths. After 30 minutes, the compound to be tested was added to the baths, and the variations in the tension were recorded by an isometric kymograph, so that the inhibitory activity of the compound was determined in 60 minutes.

platelet rich plasma = assay: Test for platelet aggregation-inhibiting activity in rabbit platelet rich plasma; assay type: cell-based, rabbit (Japanese white; male); conditions: Oryctolagus cuniculus, 0.5 h, 30 minutes incubation in PRP
Experimental: The mixture was centrifuged at 1100 rpm at 20°C for 15 minutes. The upper layer is a platelet rich plasma (RRP), and the lower layer was centrifuged at 2500 rpm at 20°C for 10 minutes, so that a platelet poor plasma (PPP) was obtained.
10 µℓ of a solution of the compound to be tested with a concentration of 10⁻⁴ moℓ/ℓ was added to 200 µℓ of PRP, and the mixture was subjected to incubation for 30 minutes. To the mixture was added 10 µℓ of a platelet activating factor (PAF)(10 µg/mℓ), or arachidonic acid (AA)(1 mM at final concentration). The extent of the aggregation was measured by Agricometer (NKK, PAT-4A).

| IC50 (platelet rich plasma; aggregation induced by platelet activating factor (PAF) 10 µg/ml, read-out: IC₅₀ (M) PAF(10 µg/ml)) | IC50 (platelet rich plasma; Platelet, aggregation induced by arachidonic acid (AA) 1 mM at final concentration, read-out: IC₅₀ (M) AA(1 mM)) | Compound | HR [1] | MaxΔMBP [1] | T 1/2 [1] | Peak [1] | Inhibitory Effect on KCℓ-induced contraction(%) [2] |
| --- | --- | --- | --- | --- | --- | --- | --- |
| 0.00011 M | 0.00014 M | COC(=O)C1=C(C)NC(C)=C(C(=O)OC/C=C/c2ccc(Cn3ccnc3)cc2)C1c1cccc([N+](=O)[O-])c1 (single isomer, unassigned; (+)) [Example 36, (+)-3-[4-(1-imidazolylmethyl)phenyl]-2-propen-1-yl methyl-1,4-dihydro-2,6-dimethyl-4-(3-nitrophenyl)pyridine-3,5-dicarboxylate] | 49.0 beats/min | 51.4 mmHg | 3.4 min | 0.9 min | 51.1 ± 11.6% |
| – | – | (-)-3-[4-(-(1-imidazolylmethyl)phenyl]-2-propen-1-yl methyl-1, 4-dihydro-2,6-dimethyl-4-(3-nitrophenyl)pyridine-3,5-dicarboxylate [Example 37] | 3.7 beats/min | 10.8 mmHg | 0.4 min | 0.6 min | 16.8 ± 9.8% |
